Assay results taken from paper PMC10725471, “Chemical modulation of cytosolic BAX homodimer potentiates BAX activation and apoptosis” (Nature Communications, 2023).
Structures can show the parent of a compound that is named as a salt. Values belong to the compound of their own block, whether it stands above or below them.

Assays:
[1] = target: T1, BAX in CALU-6 cells (Homo sapiens, UniProt Q07812); experiment: Active BAX immunoprecipitation with 6A7 antibody (BAX conformational change assay); format: cell-based; details: 20 µM, 2 hrs
T1 construct: endogenous in cells; host or cells: CALU-6
Description: Cells were harvested and lysed with a 1% CHAPS lysis buffer (150 mM NaCl, 10 mM HEPES, pH 7.4, 1% CHAPS) supplemented with Halt protease inhibitor cocktail (Thermofisher Cat. 1861279). Whole-cell lysates were subjected to immunoprecipitation followed by immunoblotting against total BAX. Briefly, 500–1000 μg total protein in 600 µl was collected and incubated with 12 µl (50% slurry) of pre-equilibrated protein G agarose beads (Santa Cruz Biotechnology) for 30 min at 4 °C on a rotator. The precleared samples were then incubated with 5 µl of 6A7 antibody (Santa Cruz Biotechnology Cat. 23959) overnight at 4 °C. The next day, 20 µl (50% slurry) of pre-equilibrated G agarose beads (Santa Cruz Biotechnology) were added to the samples and incubated for 2 h at 4 °C. The beads were pelleted, washed with the lysis buffer 3 times, and protein eluted by heating the beads at 90 °C for 15 minutes in 1X LDS/DTT loading buffer. The immunoprecipitates were subjected to electrophoresis on 4–12% NuPage gels (Life Technologies). For visualization of proteins using Odyssey Infrared Imaging System (LI-COR Biosciences), membranes were blocked in PBS containing 5% milk powder for 1 hour at room temperature. Primary antibodies were incubated overnight at 4 °C. After washing, membranes were incubated with an IRdye800-conjugated goat anti-rabbit IgG (1:10, 000) or IRDye800- conjugated goat anti-mouse IgG (1:20,000 dilution) secondary antibodies (LI-COR Biosciences). Antibodies were used to detect the following proteins on membrane: BAX (Cell Signaling Cat. 2772) and β-Actin (Sigma Cat. A1978) or β-tubulin (Cell Signaling Cat. 2146).

[2] = target: cytosolic BAX (endogenous, human cell lines) (human (endogenous in human cell lines)) (UniProt Q07812); experiment: SEC; cytosolic fraction (2.5 mg, lysis without detergent) on Superdex 200 10/300 GL in IBc buffer (10 mM Tris HCl, 1 mM EGTA, 200 mM sucrose, pH 7.5), 4 °C; fractions blotted for BAX; cell lines with BAX centered at 14–14.5 ml (CALU-6, HCT-116, Namalwa, BEAS-2B, IMR90 and other lines of the panel)
[3] = test system: HCT116 BAX P168G cells; experiment: Caspase 3/7 activation assay; format: cell-based, human
[4] = test system: HCT116 BAX E75K cells (HCT116 BAX KO reconstituted with BAX E75K, cytosolic monomer); experiment: Cell viability (CellTiter-Glo) assay; format: cell-based; details: Homo sapiens, HCT-116, after 24 h
[5] = test system: CALU-6 CRISPR/Cas9 BAX KO cells; experiment: Caspase 3/7 activation assay; format: cell-based, human; details: CALU-6 BAX KO, 8 hrs
[6] = test system: HCT116 BAX P168G cells (HCT116 BAX KO reconstituted with BAX P168G, cytosolic dimer); experiment: Cell viability (CellTiter-Glo) assay; details: up to highest concentration of 2 μM, 24 h
[7] = test system: HCT116 BAX WT cells (HCT116 BAX KO reconstituted with BAX WT, cytosolic dimer); experiment: Cell viability (CellTiter-Glo) assay; format: cell-based; details: Homo sapiens, HCT-116, 24 h
[8] = target: FITC-BIM SAHB, hydrocarbon-stapled peptide corresponding to the BH3 domain of BIM; experiment: fluorescence polarisation; direct binding: FITC-BIM SAHB (25 nM) with serial dilutions of full-length BAX; 10-minute time-point
[9] = test system: HCT116 BAX WT, HCT116 BAX P168G and HCT116 BAX E75K cells; experiment: Caspase 3/7 activation assay; format: cell-based, human; details: all HCT116 BAX cell lines, titration, 6 hrs
[10] = target: human BAX WT in HCT116 BAX KO cells (human) (UniProt Q07812); experiment: SEC; cytosolic fraction of HCT116 BAX KO cells reconstituted with BAX WT, P168G or E75K, untreated; Superdex 200 10/300 GL in IBc buffer, 4 °C; fractions blotted for BAX
[11] = test system: SUDHL-5 cells; experiment: Cell viability (CellTiter-Glo) assay; format: cell-based; details: Homo sapiens, SU-DHL-5; SUDHL-5, 72 hrs

T1 sequence (Q07812 whole entry): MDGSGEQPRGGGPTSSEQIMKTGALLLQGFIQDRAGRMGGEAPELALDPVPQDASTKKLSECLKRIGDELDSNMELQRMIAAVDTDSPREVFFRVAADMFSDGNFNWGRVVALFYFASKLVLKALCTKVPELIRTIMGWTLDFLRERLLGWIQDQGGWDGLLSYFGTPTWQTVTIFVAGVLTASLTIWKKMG
Sequence of recombinant human full-length (aa1–192) wild-type BAX (Q07812 whole entry, the tested form may be a part): as the sequence (Q07812 whole entry) above

Compound: O=C(O)c1ccc(-n2c(/C=C/C3CCCC3)nc3ccc(I)cc3c2=O)cc1 [BDM19.2]
6A7 epitope exposure and activation of BAX (result in words) [1]: none of the analogs

Compound: cytosolic BAX (endogenous, human cell lines) (from UniProt Q07812 1-192) (natural protein)
stoichiometry N [2]: 2

Compound: COc1cccc2c1C(=O)c1c(O)c3c(c(O)c1C2=O)C[C@@](O)(C(=O)CO)C[C@@H]3O[C@H]1C[C@H](N)[C@H](O)[C@H](C)O1 [doxorubicin, Doxorubicin hydrochloride]
caspase-3/7 activation (result in words) ([3]; various concentrations, 24 hrs): not responsive

Compound: Cc1cccc(/C=C/c2nc3c(c(=O)n2-c2ccc(C(=O)O)cc2)CCCC3)c1 [BDM19.4]
6A7 epitope exposure and activation of BAX (result in words) [1]: none of the analogs

Compound: O=C(O)c1ccc(-n2c(/C=C/C3CC3)nc3ccc(I)cc3c2=O)cc1 [BDM19.3]
6A7 epitope exposure and activation of BAX (result in words) [1]: none of the analogs

Compound: recombinant human full-length (aa1–192) wild-type BAX (from UniProt Q07812 1-192) (natural protein)
EC75 [8]: 0.125 µM

Compound: CC1(C)CCC(CN2CCN(c3ccc(C(=O)NS(=O)(=O)c4ccc(NCC5CCOCC5)c([N+](=O)[O-])c4)c(Oc4cnc5[nH]ccc5c4)c3)CC2)=C(c2ccc(Cl)cc2)C1 [ABT-199, Venetoclax]
caspase-3/7 activity (result in words) [9]: failed to induce caspase-3/7 activity

Compound: human BAX WT in HCT116 BAX KO cells (from UniProt Q07812 1-192) (natural protein)
stoichiometry N [10]: 2

Continued, in another order:

IC50 [4]: 0.045 µM
IC50 [7]: 0.191 µM
Compound: CC1(C)CCC(c2ccc(Cl)cc2)=C(CN2CCN(c3ccc(C(=O)NS(=O)(=O)c4ccc(N[C@H](CCN5CCOCC5)CSc5ccccc5)c(S(=O)(=O)C(F)(F)F)c4)cc3)CC2)C1 [ABT-263, Navitoclax]
caspase-3/7 activity (result in words) ([3]; titration, 6 hrs): did not show caspase-3/7 activity
caspase-3/7 activation (result in words) [5]: no caspase-3/7 activation was observed
cell viability (result in words) [6]: did not show decreased viability

IC50 [11]: 1.36 µM
Compound: Cc1cccc(/C=C/c2nc3ccc(I)cc3c(=O)n2-c2ccc(C(=O)O)cc2)c1 [BDM19]
caspase-3/7 activation (result in words) [5]: no caspase-3/7 activation was observed
